According to ChEMBL document CHEMBL2380247, “Synthesis and biological evaluation of novel aliphatic amido-quaternary ammonium salts for anticancer chemotherapy: part II” (2013):
Active and inactive are the calls of the source. No cut-off for these calls is given here.

Legend:
NUGC-3 [1] = test: Antiproliferative activity against human NUGC3 cells at 0.3 uM by SRB assay; type: functional
NUGC-3 [2] = test: Antiproliferative activity against human NUGC3 cells at 0.1 uM by SRB assay; type: functional
NUGC-3 [3] = test: Antiproliferative activity against human NUGC3 cells at 1 uM by SRB assay; type: functional
NUGC-3 [4] = test: Antiproliferative activity against human NUGC3 cells at 10 uM by SRB assay; type: functional
NUGC-3 [5] = test: Antiproliferative activity against human NUGC3 cells at 3 uM by SRB assay; type: functional
MDA-MB-231 [6] = test: Antiproliferative activity against human MDA-MB-231 cells at 0.1 uM by SRB assay; type: functional
MDA-MB-231 [7] = test: Antiproliferative activity against human MDA-MB-231 cells at 0.3 uM by SRB assay; type: functional
MDA-MB-231 [8] = test: Antiproliferative activity against human MDA-MB-231 cells at 1 uM by SRB assay; type: functional
MDA-MB-231 [9] = test: Antiproliferative activity against human MDA-MB-231 cells at 10 uM by SRB assay; type: functional
MDA-MB-231 [10] = test: Antiproliferative activity against human MDA-MB-231 cells at 3 uM by SRB assay; type: functional
ACHN [11] = test: Antiproliferative activity against human ACHN cells at 0.1 uM by SRB assay; type: functional
ACHN [12] = test: Antiproliferative activity against human ACHN cells at 1 uM by SRB assay; type: functional
ACHN [13] = test: Antiproliferative activity against human ACHN cells at 0.3 uM by SRB assay; type: functional
ACHN [14] = test: Antiproliferative activity against human ACHN cells at 3 uM by SRB assay; type: functional
ACHN [15] = test: Antiproliferative activity against human ACHN cells at 10 uM by SRB assay; type: functional
NCI-H23 [16] = test: Antiproliferative activity against human NCI-H23 cells at 0.3 uM by SRB assay; type: functional
NCI-H23 [17] = test: Antiproliferative activity against human NCI-H23 cells at 0.1 uM by SRB assay; type: functional
NCI-H23 [18] = test: Antiproliferative activity against human NCI-H23 cells at 3 uM by SRB assay; type: functional
NCI-H23 [19] = test: Antiproliferative activity against human NCI-H23 cells at 1 uM by SRB assay; type: functional
NCI-H23 [20] = test: Antiproliferative activity against human NCI-H23 cells at 10 uM by SRB assay; type: functional
PC-3 [21] = test: Antiproliferative activity against human PC3 cells at 0.1 uM by SRB assay; type: functional
PC-3 [22] = test: Antiproliferative activity against human PC3 cells at 1 uM by SRB assay; type: functional
PC-3 [23] = test: Antiproliferative activity against human PC3 cells at 0.3 uM by SRB assay; type: functional
PC-3 [24] = test: Antiproliferative activity against human PC3 cells at 3 uM by SRB assay; type: functional
HCT-15 [25] = test: Antiproliferative activity against human HCT15 cells at 0.1 uM by SRB assay; type: functional
PC-3 [26] = test: Antiproliferative activity against human PC3 cells at 10 uM by SRB assay; type: functional
HCT-15 [27] = test: Antiproliferative activity against human HCT15 cells at 0.3 uM by SRB assay; type: functional
HCT-15 [28] = test: Antiproliferative activity against human HCT15 cells at 3 uM by SRB assay; type: functional
HCT-15 [29] = test: Antiproliferative activity against human HCT15 cells at 1 uM by SRB assay; type: functional
HCT-15 [30] = test: Antiproliferative activity against human HCT15 cells at 10 uM by SRB assay; type: functional
[31] = molecular target: Rho-related GTP-binding protein RhoB (Homo sapiens) (UniProt P62745); test: Transactivation of RhoB in human HeLa cells by luciferase reporter assay; type: cell-based
NCI-H23 [32] = test: Antiproliferative activity against human NCI-H23 cells by SRB assay; type: functional
NUGC-3 [33] = test: Antiproliferative activity against human NUGC3 cells by SRB assay; type: functional
HCT-15 [34] = test: Antiproliferative activity against human HCT15 cells by SRB assay; type: functional
ACHN [35] = test: Antiproliferative activity against human ACHN cells by SRB assay; type: functional
MDA-MB-231 [36] = test: Antiproliferative activity against human MDA-MB-231 cells by SRB assay; type: functional
PC-3 [37] = test: Antiproliferative activity against human PC3 cells by SRB assay; type: functional

Chain of Rho-related GTP-binding protein RhoB (Homo sapiens) (P62745 whole entry): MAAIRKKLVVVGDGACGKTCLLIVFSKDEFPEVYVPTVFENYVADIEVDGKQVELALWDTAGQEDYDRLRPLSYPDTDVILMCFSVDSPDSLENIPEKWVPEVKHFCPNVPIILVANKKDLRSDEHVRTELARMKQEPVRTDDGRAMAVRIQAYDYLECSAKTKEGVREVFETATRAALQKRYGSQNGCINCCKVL

Compound | growth, % of control at 0.3 µM (NUGC-3 [1]) | growth, % of control at 0.1 µM (NUGC-3 [2]) | growth, % of control at 1 µM (NUGC-3 [3]) | growth, % of control at 10 µM (NUGC-3 [4]) | growth, % of control at 3 µM (NUGC-3 [5]) | growth, % of control at 0.1 µM (MDA-MB-231 [6]) | growth, % of control at 0.3 µM (MDA-MB-231 [7]) | growth, % of control at 1 µM (MDA-MB-231 [8]) | growth, % of control at 10 µM (MDA-MB-231 [9]) | growth, % of control at 3 µM (MDA-MB-231 [10]) | growth, % of control at 0.1 µM (ACHN [11]) | growth, % of control at 1 µM (ACHN [12]) | growth, % of control at 0.3 µM (ACHN [13]) | growth, % of control at 3 µM (ACHN [14]) | growth, % of control at 10 µM (ACHN [15]) | growth, % of control at 0.3 µM (NCI-H23 [16]) | growth, % of control at 0.1 µM (NCI-H23 [17]) | growth, % of control at 3 µM (NCI-H23 [18]) | growth, % of control at 1 µM (NCI-H23 [19]) | growth, % of control at 10 µM (NCI-H23 [20]) | also measured
CCCCCCCCCCCCCC(=O)N(C)CC[N+](C)(C)C | 70.9% | 100% | 22.5% | -11.9% | -3.9% | 98.5% | 94.7% | 74.2% | 5.2% | 26.6% | 84.4% | 34.4% | 73.3% | 9.6% | -15.9% | 80.1% | 99.8% | 36.1% | 79.7% | 4.1% | growth, % of control at 0.1 µM (PC-3 [21]): 96.6%; growth, % of control at 1 µM (PC-3 [22]): 38.4%; growth, % of control at 0.3 µM (PC-3 [23]): 96.4%; growth, % of control at 3 µM (PC-3 [24]): -4.8%; growth, % of control at 0.1 µM (HCT-15 [25]): 91%; growth, % of control at 10 µM (PC-3 [26]): -21.7%; growth, % of control at 0.3 µM (HCT-15 [27]): 90.4%; growth, % of control at 3 µM (HCT-15 [28]): 53.1%; growth, % of control at 1 µM (HCT-15 [29]): 82.4%; growth, % of control at 10 µM (HCT-15 [30]): 19.2%; Activity [31]: Active; GI50 (NCI-H23 [32]): 0.92 µM; GI50 (NUGC-3 [33]): 0.22 µM; GI50 (HCT-15 [34]): 1.47 µM; GI50 (ACHN [35]): 0.26 µM; GI50 (MDA-MB-231 [36]): 0.8 µM; GI50 (PC-3 [37]): 0.41 µM
CCCCCCCCCCCCCC(=O)NCC(C)(C)C[N+](C)(C)C | 104% | 103% | 84.7% | -33.6% | 16.2% | 98.5% | 103% | 90.2% | -11% | 44% | 94.5% | 95.1% | 96.2% | 83.8% | 28.7% | 109% | 147% | 48.3% | 104% | -26.6% | growth, % of control at 0.1 µM (PC-3 [21]): 97.9%; growth, % of control at 1 µM (PC-3 [22]): 64.1%; growth, % of control at 0.3 µM (PC-3 [23]): 94.5%; growth, % of control at 3 µM (PC-3 [24]): -13%; growth, % of control at 0.1 µM (HCT-15 [25]): 102%; growth, % of control at 10 µM (PC-3 [26]): -44.4%; growth, % of control at 0.3 µM (HCT-15 [27]): 101%; growth, % of control at 3 µM (HCT-15 [28]): 92.5%; growth, % of control at 1 µM (HCT-15 [29]): 97.9%; growth, % of control at 10 µM (HCT-15 [30]): 33.1%; Activity [31]: Active; GI50 (NCI-H23 [32]): 1.44 µM; GI50 (NUGC-3 [33]): 0.84 µM; GI50 (HCT-15 [34]): 3.7 µM; GI50 (ACHN [35]): 3.12 µM; GI50 (MDA-MB-231 [36]): 1.31 µM; GI50 (PC-3 [37]): 0.51 µM
CCCCCCCCCCCCCCCC(=O)NCCC[N+](C)(C)C | 109% | 112% | 72.8% | 20.1% | 34.9% | 101% | 98.3% | 96.6% | 25.1% | 61.6% | 97% | 91.8% | 94.4% | 66% | 42.5% | 104% | 106% | 67.8% | 93% | 18.3% | growth, % of control at 0.1 µM (PC-3 [21]): 90.6%; growth, % of control at 1 µM (PC-3 [22]): 62.6%; growth, % of control at 0.3 µM (PC-3 [23]): 85.2%; growth, % of control at 3 µM (PC-3 [24]): 19.1%; growth, % of control at 0.1 µM (HCT-15 [25]): 110%; growth, % of control at 10 µM (PC-3 [26]): -1.77%; growth, % of control at 0.3 µM (HCT-15 [27]): 104%; growth, % of control at 3 µM (HCT-15 [28]): 71.1%; growth, % of control at 1 µM (HCT-15 [29]): 97.4%; growth, % of control at 10 µM (HCT-15 [30]): 26.1%; Activity [31]: Active; GI50 (NCI-H23 [32]): 2.15 µM; GI50 (NUGC-3 [33]): 1.07 µM; GI50 (HCT-15 [34]): 2.56 µM; GI50 (ACHN [35]): 3.36 µM; GI50 (MDA-MB-231 [36]): 2.18 µM; GI50 (PC-3 [37]): 0.6 µM
